Measurements: publication PMC4376724, “Differential Phenotypic and Functional Profiles of TcCA-2 -Specific Cytotoxic CD8^+ T Cells in the Asymptomatic versus Cardiac Phase in Chagasic Patients” (PLoS ONE, 2015)

Tests used:
[1] = target: HLA-A*02:01 (Homo sapiens, UniProt P04439, D140Y/D185E/D98H/E176V/E277Q/G131W/G231S/I119V/I121R/I166T/I218V/L300P/L318F/N151K/N90K/P208A/P217A/Q86G/Q94H/R138H/R169H/T345S); experiment: HLA-A*02:01 binding assay (surface stabilization on TAP-deficient T2 cells); settings: different peptide concentrations in duplicate, serum-free RPMI, overnight at room temperature, PE anti-HLA-A2 (BB7.2) flow cytometry, referred to 25 μM HB-ENV335-343 peptide
Protocol: TAP-deficient T2 cells were used for the HLA-A*02:01 binding assays and the K562-A2 cells for the HLA-A*02:01 restriction assay. The cells were cultured in complete RPMI medium supplemented with 10% of inactivated Fetal Calf Serum (iFCS), 2 mM glutamine, and 100 U/ml penicillin. K562-A2 cells, expressing the HLA-A*02:01 molecule were cultured in the presence of […] of G-418, as previously described. The T2 and K562-A2 cells were kindly provided by Dr. Pedro Romero (University of Lausanne) and by Dr Peter Ponsaerts (University of Antwerp, with the permission of Dr. Cedrik Britten from Johanes Gutenberg-University Mainz), respectively.
HLA-A*02:01 surface stabilization test was carried out as described in [42]. Briefly, TAP-deficient T2 cells were loaded with different concentrations of each peptide, in duplicate in serum-free RPMI medium, and incubated overnight at room temperature. Afterwards, the cells were stained with a PE-labeled HLA-A2-specific antibody (BB7.2 clone, BD biosciences) and analyzed by flow cytometry. The high-affinity HLA-A*02:01-binding peptide […] ([…]) was included as internal standard. Affinity data were calculated as the percentage of maximum complex stabilization, as described in [44]. The following equation was used: % of maximal stabilization = 100 x [(mean fluorescence with peptide)–(background mean fluorescence)]/[(mean fluorescence with 25 μM HBENV335-343 peptide)–(background mean fluorescence)]. Background value was obtained with cells incubated in the same conditions without peptide.
The percentage of maximal binding stabilization of these eight TcCA-2 peptides was evaluated using TAP-deficient T2 cells and different concentrations of each peptide. […] The maximal binding affinity is shown for each peptide in Table 1.

[2] = tested on: PBMCs from asymptomatic HLA-A*02:01 Chagas disease patients; experiment: HLA-A*02:01 restriction assay: peptide-pulsed K562-A2 cells as APC, IFN-γ secretion by patient PBMC; type: cell-based, human; settings: K562-A2 cells pulsed with 1 mM peptide 1 h, co-cultured 30 h with PBMC of asymptomatic (IND) patients; positive = IFN-γ at least two folds un-stimulated cells

| Sequence | % maximal stabilization [1] [%] | Chagas disease patient: patients with positive response in relation with the total number of patients per assay [2] |
| --- | --- | --- |
| AIGGGKLPAL [TcCA-2_531-540] | 20.89 | 0/9 |
| FANAPGVAQV [TcCA-2_452-461] | 46.23 | 0/10 |
| SAFGNHASTV [TcCA-2_550-559] | 19.07 | 0/9 |
| SILQNVHATL [TcCA-2_489-498] | 36.02 | 0/8 |
